Source: PubChem BioAssay (NCI)
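The concentration for 50% growth inhibition is given as GI50. TGI marks complete inhibition of growth.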

Legend:
Assay in all cases: DTP human tumour cell line panel, 384-well format
EKVX NSCLC = test system: EKVX NSCLC
MDA-MB-435 melanoma = test system: MDA-MB-435 melanoma
OVCAR-3 ovarian = test system: OVCAR-3 ovarian
SW-620 colon = test system: SW-620 colon
HS 578T breast = test system: HS 578T breast
HCT-15 colon = test system: HCT-15 colon
OVCAR-4 ovarian = test system: OVCAR-4 ovarian
UO-31 renal = test system: UO-31 renal
LOX IMVI melanoma = test system: LOX IMVI melanoma
MCF7 breast = test system: MCF7 breast
TK-10 renal = test system: TK-10 renal
NCI-H522 lung = test system: NCI-H522 lung
HCT-116 colon = test system: HCT-116 colon
A498 renal = test system: A498 renal
CAKI-1 renal = test system: CAKI-1 renal
U251 glioblastoma = test system: U251 glioblastoma
OVCAR-5 ovarian = test system: OVCAR-5 ovarian
BT-549 breast = test system: BT-549 breast
IGROV1 ovarian = test system: IGROV1 ovarian
DU-145 prostate = test system: DU-145 prostate
MOLT-4 leukemia = test system: MOLT-4 leukemia
COLO 205 colon = test system: COLO 205 colon
SNB-19 CNS = test system: SNB-19 CNS
HOP-62 NSCLC = test system: HOP-62 NSCLC
SK-OV-3 ovarian = test system: SK-OV-3 ovarian
RXF 393 renal = test system: RXF 393 renal
A549 NSCLC = test system: A549 NSCLC
NCI-H322M lung = test system: NCI-H322M lung
HL-60(TB) leukemia = test system: HL-60(TB) leukemia
NCI-H23 lung = test system: NCI-H23 lung
SN12C renal = test system: SN12C renal
UACC-257 melanoma = test system: UACC-257 melanoma
KM12 colon = test system: KM12 colon
SNB-75 CNS = test system: SNB-75 CNS
SK-MEL-28 melanoma = test system: SK-MEL-28 melanoma
MDA-MB-231 breast = test system: MDA-MB-231 breast
SF-268 CNS = test system: SF-268 CNS
SF-539 CNS = test system: SF-539 CNS
MDA-MB-468 breast = test system: MDA-MB-468 breast
SK-MEL-5 melanoma = test system: SK-MEL-5 melanoma
NCI-H226 lung = test system: NCI-H226 lung
M14 melanoma = test system: M14 melanoma
T-47D breast = test system: T-47D breast
ACHN renal = test system: ACHN renal
PC-3 prostate = test system: PC-3 prostate
SR leukemia = test system: SR leukemia
MALME-3M melanoma = test system: MALME-3M melanoma
CCRF-CEM leukemia = test system: CCRF-CEM leukemia
HT29 colon = test system: HT29 colon
NCI/ADR-RES ovarian = test system: NCI/ADR-RES ovarian
HCC-2998 colon = test system: HCC-2998 colon
NCI-H460 NSCLC = test system: NCI-H460 NSCLC
SF-295 CNS = test system: SF-295 CNS
RPMI-8226 leukemia = test system: RPMI-8226 leukemia
UACC-62 melanoma = test system: UACC-62 melanoma
786-0 renal = test system: 786-0 renal
HOP-92 NSCLC = test system: HOP-92 NSCLC
OVCAR-8 ovarian = test system: OVCAR-8 ovarian

CN1CCN(c2ccc(Nc3ncc4cc5n(c4n3)C3(CCCCC3)CNC5=O)nc2)CC1
GI50 (EKVX NSCLC): 3.11 µM
TGI (EKVX NSCLC): 11 µM
GI50 (MDA-MB-435 melanoma): 4.34 µM
TGI (MDA-MB-435 melanoma): 24.8 µM
GI50 (OVCAR-3 ovarian): 3.05 µM
TGI (OVCAR-3 ovarian): 7.81 µM
GI50 (SW-620 colon): 1090 nM
TGI (SW-620 colon): 10.2 µM
GI50 (HS 578T breast): 2090 nM
TGI (HS 578T breast): 4.09 µM
GI50 (HCT-15 colon): 2140 nM
TGI (HCT-15 colon): 9.25 µM
GI50 (OVCAR-4 ovarian): 5.31 µM
TGI (OVCAR-4 ovarian): 14.6 µM
GI50 (UO-31 renal): 1360 nM
TGI (UO-31 renal): > 23.3 µM
GI50 (LOX IMVI melanoma): 993 nM
TGI (LOX IMVI melanoma): 3.02 µM
GI50 (MCF7 breast): 1390 nM
TGI (MCF7 breast): 9.19 µM
GI50 (TK-10 renal): 2940 nM
TGI (TK-10 renal): 15.3 µM
GI50 (NCI-H522 lung): 7.65 µM
TGI (NCI-H522 lung): 18.9 µM
GI50 (HCT-116 colon): 1410 nM
TGI (HCT-116 colon): 5.38 µM
GI50 (A498 renal): 3.03 µM
TGI (A498 renal): 14.5 µM
GI50 (CAKI-1 renal): 1210 nM
TGI (CAKI-1 renal): > 40.5 µM
GI50 (U251 glioblastoma): 3.14 µM
TGI (U251 glioblastoma): 15.2 µM
GI50 (OVCAR-5 ovarian): 2040 nM
TGI (OVCAR-5 ovarian): > 100 µM
GI50 (BT-549 breast): 2000 nM
TGI (BT-549 breast): 3.9 µM
GI50 (IGROV1 ovarian): 4.12 µM
TGI (IGROV1 ovarian): > 100 µM
GI50 (DU-145 prostate): 3.22 µM
TGI (DU-145 prostate): 9.41 µM
GI50 (MOLT-4 leukemia): 116 nM
TGI (MOLT-4 leukemia): 931 nM
GI50 (COLO 205 colon): 844 nM
TGI (COLO 205 colon): 5.67 µM
GI50 (SNB-19 CNS): 3.99 µM
TGI (SNB-19 CNS): > 52.6 µM
GI50 (HOP-62 NSCLC): 1990 nM
TGI (HOP-62 NSCLC): 6.75 µM
GI50 (SK-OV-3 ovarian): 5.23 µM
TGI (SK-OV-3 ovarian): > 42.6 µM
GI50 (RXF 393 renal): 2150 nM
TGI (RXF 393 renal): 4.02 µM
GI50 (A549 NSCLC): 1650 nM
TGI (A549 NSCLC): 9.44 µM
GI50 (NCI-H322M lung): 2170 nM
TGI (NCI-H322M lung): 7.5 µM
GI50 (HL-60(TB) leukemia): 139 nM
TGI (HL-60(TB) leukemia): 1770 nM
GI50 (NCI-H23 lung): 1810 nM
TGI (NCI-H23 lung): 3.83 µM
GI50 (SN12C renal): 1830 nM
TGI (SN12C renal): 7.87 µM
GI50 (UACC-257 melanoma): 5.59 µM
TGI (UACC-257 melanoma): 17.4 µM
GI50 (KM12 colon): 1340 nM
TGI (KM12 colon): 14.3 µM
GI50 (SNB-75 CNS): 1890 nM
TGI (SNB-75 CNS): 4.35 µM
GI50 (SK-MEL-28 melanoma): 2470 nM
TGI (SK-MEL-28 melanoma): 14.5 µM
GI50 (MDA-MB-231 breast): 796 nM
TGI (MDA-MB-231 breast): 3.23 µM
GI50 (SF-268 CNS): 1810 nM
TGI (SF-268 CNS): 4.14 µM
GI50 (SF-539 CNS): 1750 nM
TGI (SF-539 CNS): 3.44 µM
GI50 (MDA-MB-468 breast): 4.26 µM
TGI (MDA-MB-468 breast): 10.8 µM
GI50 (SK-MEL-5 melanoma): 2390 nM
TGI (SK-MEL-5 melanoma): 12.7 µM
GI50 (NCI-H226 lung): 362 nM
TGI (NCI-H226 lung): 4.23 µM
GI50 (M14 melanoma): 1480 nM
TGI (M14 melanoma): 4.85 µM
GI50 (T-47D breast): 7.74 µM
TGI (T-47D breast): 23.3 µM
GI50 (ACHN renal): 1630 nM
TGI (ACHN renal): > 100 µM
GI50 (PC-3 prostate): 2710 nM
TGI (PC-3 prostate): > 39 µM
GI50 (SR leukemia): 40.8 nM
TGI (SR leukemia): 196 nM
GI50 (MALME-3M melanoma): 1450 nM
TGI (MALME-3M melanoma): 4.22 µM
GI50 (CCRF-CEM leukemia): 399 nM
TGI (CCRF-CEM leukemia): 1810 nM
GI50 (HT29 colon): 1460 nM
TGI (HT29 colon): 12.1 µM
GI50 (NCI/ADR-RES ovarian): 8.49 µM
TGI (NCI/ADR-RES ovarian): 23.8 µM
GI50 (HCC-2998 colon): 2350 nM
TGI (HCC-2998 colon): 5.48 µM
GI50 (NCI-H460 NSCLC): 1330 nM
TGI (NCI-H460 NSCLC): 3.74 µM
GI50 (SF-295 CNS): 1750 nM
TGI (SF-295 CNS): 7.59 µM
GI50 (RPMI-8226 leukemia): 245 nM
TGI (RPMI-8226 leukemia): 1500 nM
GI50 (UACC-62 melanoma): 1690 nM
TGI (UACC-62 melanoma): 7.78 µM
GI50 (786-0 renal): 2340 nM
TGI (786-0 renal): > 100 µM
GI50 (HOP-92 NSCLC): 2280 nM
TGI (HOP-92 NSCLC): > 24.2 µM
GI50 (OVCAR-8 ovarian): 3.57 µM
TGI (OVCAR-8 ovarian): 10.5 µM
